# Measured values published in ChEMBL document CHEMBL1155592, “New antibacterial metabolites from the cyanobacterium Nostoc commune(EAWAG 122b)” (2000).
# Tested on: Bacillus cereus
# Assay: Antibacterial activity against Bacillus cereus ATCC 10702
# Format: functional
row,MIC [µg/mL],SMILES
1,8,O=C(N[C@H](CO)[C@H](O)c1ccc([N+](=O)[O-])cc1)C(Cl)Cl [CHLORAMPHENICOL]
2,64,Cc1ccc(O)c2c1C(=O)CC2
3,128,C[C@@H]1C[C@H](O)C2=C3[C@@H](C[C@@H]4C(C)(C)[C@H](O)CC[C@@]24C)Oc2ccc(C(=O)O)cc2C[C@@]31C
4,32,Cc1ccc(O)c2c1C(=O)c1cccc(O)c1C2=O

# Tested on: Staphylococcus epidermidis
# Assay: Antibacterial activity against Staphylococcus epidermidis ATCC 12228
# Format: functional
row,MIC [µg/mL],SMILES
1,4,O=C(N[C@H](CO)[C@H](O)c1ccc([N+](=O)[O-])cc1)C(Cl)Cl [CHLORAMPHENICOL]
2,128,Cc1ccc(O)c2c1C(=O)CC2
3,4,C[C@@H]1C[C@H](O)C2=C3[C@@H](C[C@@H]4C(C)(C)[C@H](O)CC[C@@]24C)Oc2ccc(C(=O)O)cc2C[C@@]31C
4,32,Cc1ccc(O)c2c1C(=O)c1cccc(O)c1C2=O
